Numbers after ± are expanded uncertainties.

The series is described as follows: activity coefficient (dimensionless); of the first substance listed, at infinite dilution; xn = mol fraction of the nth substance listed. The settings on record: Liquid, Chromatography, x1 = 0.

Take `CC(C)O` [propan-2-ol] + CCCCCCCCCC[N+](C)(C)C.O=S(=O)([N-]S(=O)(=O)C(F)(F)F)C(F)(F)F: the activity coefficient reads like this: (322.85 K) 1.38 ± 0.05; (332.65 K) 1.28 ± 0.04; (343.15 K) 1.15 ± 0.04.

Take `CCCCCCCCC` [nonane] + CCCCCCCCCC[N+](C)(C)C.O=S(=O)([N-]S(=O)(=O)C(F)(F)F)C(F)(F)F: the activity coefficient was found to be 8.87 ± 0.41 (322.85 K), 8.63 ± 0.4 (332.65 K) and 7.61 ± 0.35 (343.15 K).

With `OCC(F)(F)F` [2,2,2-trifluoroethanol] + CCCCCCCCCC[N+](C)(C)C.O=S(=O)([N-]S(=O)(=O)C(F)(F)F)C(F)(F)F, the activity coefficient is, setting by setting: (322.85 K) 0.46 ± 0.03; (332.65 K) 0.44 ± 0.03; (343.15 K) 0.41 ± 0.03.

On to `C1COCCO1` [1,4-dioxane] + CCCCCCCC[N+](CCCCCCCC)(CCCCCCCC)CCCCCCCC.O=S(=O)([N-]S(=O)(=O)C(F)(F)F)C(F)(F)F, for which the activity coefficient worked out at 0.47 ± 0.03 (322.85 K), 0.47 ± 0.03 (332.65 K) and 0.47 ± 0.03 (343.15 K).

With `ClC(Cl)(Cl)Cl` [tetrachloromethane] + CCCCCCCC[N+](CCCCCCCC)(CCCCCCCC)CCCCCCCC.O=S(=O)([N-]S(=O)(=O)C(F)(F)F)C(F)(F)F, the activity coefficient worked out at 0.63 ± 0.03 (322.85 K), 0.64 ± 0.03 (332.65 K) and 0.64 ± 0.03 (343.15 K).

With `c1ccccc1` [benzene] + CCCC[N+](C)(CCCC)CCCC.O=S(=O)([N-]S(=O)(=O)C(F)(F)F)C(F)(F)F, the activity coefficient was found to be 0.9 ± 0.03 (322.85 K), 0.93 ± 0.03 (332.65 K) and 0.92 ± 0.03 (343.15 K).

For `CC(C)OC(C)C` [diisopropyl ether] + CCCCCCCC[N+](CCCCCCCC)(CCCCCCCC)CCCCCCCC.O=S(=O)([N-]S(=O)(=O)C(F)(F)F)C(F)(F)F, the activity coefficient (322.85 K) stood at 1.08 ± 0.03, the activity coefficient (332.65 K) worked out at 1.08 ± 0.03 and the activity coefficient (343.15 K) is 1.08 ± 0.03.

In the case of `CC#N` [acetonitrile] + CCCCCCCCCC[N+](C)(C)C.O=S(=O)([N-]S(=O)(=O)C(F)(F)F)C(F)(F)F, the activity coefficient was 0.44 ± 0.03 (322.85 K), 0.44 ± 0.03 (332.65 K) and 0.42 ± 0.03 (343.15 K).

Turning to `OCC(F)(F)F` [2,2,2-trifluoroethanol] + CCCCCCCC[N+](CCCCCCCC)(CCCCCCCC)CCCCCCCC.O=S(=O)([N-]S(=O)(=O)C(F)(F)F)C(F)(F)F, the activity coefficient stood at 0.48 ± 0.03 (322.85 K), 0.37 ± 0.03 (332.65 K) and 0.36 ± 0.04 (343.15 K).

Take `CO` [methanol] + CCCCCCCCCC[N+](C)(C)C.O=S(=O)([N-]S(=O)(=O)C(F)(F)F)C(F)(F)F: the activity coefficient (322.85 K) stood at 0.79 ± 0.03, the activity coefficient (332.65 K) is 0.91 ± 0.03 and the activity coefficient (343.15 K) came out at 0.66 ± 0.03.

Regarding `CCOCC` [diethyl ether] + CCCCCCCC[N+](C)(C)C.O=S(=O)([N-]S(=O)(=O)C(F)(F)F)C(F)(F)F, the activity coefficient by setting is: (322.85 K) 1.6 ± 0.06; (332.65 K) 1.57 ± 0.06; (343.15 K) 1.53 ± 0.06.

Regarding `CC(C)O` [propan-2-ol] + CCCCCCCC[N+](CCCCCCCC)(CCCCCCCC)CCCCCCCC.O=S(=O)([N-]S(=O)(=O)C(F)(F)F)C(F)(F)F, the activity coefficient runs as follows: (322.85 K) 1.21 ± 0.04; (332.65 K) 1.13 ± 0.03; (343.15 K) 1.05 ± 0.03.

With `CCCCCC` [hexane] + CCCCCCCC[N+](C)(C)C.O=S(=O)([N-]S(=O)(=O)C(F)(F)F)C(F)(F)F, the activity coefficient reads like this: (322.85 K) 6.21 ± 0.28; (332.65 K) 5.83 ± 0.27; (343.15 K) 5.36 ± 0.24.

For the compound `CCCCCCCCCCCC` [dodecane] + CCCCCCCCCC[N+](C)(C)C.O=S(=O)([N-]S(=O)(=O)C(F)(F)F)C(F)(F)F, the activity coefficient by setting is: (322.85 K) 15.1 ± 0.7; (332.65 K) 14.8 ± 0.68; (343.15 K) 13.8 ± 0.63.

In the case of `CC(C)OC(C)C` [diisopropyl ether] + CCCCCCCCCC[N+](C)(C)C.O=S(=O)([N-]S(=O)(=O)C(F)(F)F)C(F)(F)F, the activity coefficient stood at 2.19 ± 0.1 (322.85 K), 2.32 ± 0.11 (332.65 K) and 2.3 ± 0.1 (343.15 K).

Consider `Cc1ccccc1` [toluene] + CCCCCCCCCC[N+](C)(C)C.O=S(=O)([N-]S(=O)(=O)C(F)(F)F)C(F)(F)F, for which the activity coefficient runs as follows: (322.85 K) 0.84 ± 0.03; (332.65 K) 0.89 ± 0.03; (343.15 K) 0.89 ± 0.03.

Regarding `C#CCCCCC` [1-heptyne] + CCCC[N+](C)(CCCC)CCCC.O=S(=O)([N-]S(=O)(=O)C(F)(F)F)C(F)(F)F, the activity coefficient (322.85 K) came to 2.79 ± 0.13, the activity coefficient (332.65 K) came to 2.89 ± 0.13 and the activity coefficient (343.15 K) was determined as 2.85 ± 0.13.

For the compound `CCCCCCCCCC` [decane] + CCCCCCCC[N+](C)(C)C.O=S(=O)([N-]S(=O)(=O)C(F)(F)F)C(F)(F)F, the activity coefficient was found to be 19.3 ± 0.89 (322.85 K), 17.9 ± 0.83 (332.65 K) and 16.2 ± 0.75 (343.15 K).

As for `C=CCCCC` [hex-1-ene] + CCCCCCCC[N+](C)(C)C.O=S(=O)([N-]S(=O)(=O)C(F)(F)F)C(F)(F)F, the activity coefficient (322.85 K) stood at 3.99 ± 0.18, the activity coefficient (332.65 K) came to 3.8 ± 0.17 and the activity coefficient (343.15 K) was 3.6 ± 0.16.

On to `CC1CCCCC1` [methylcyclohexane] + CCCCCCCC[N+](C)(C)C.O=S(=O)([N-]S(=O)(=O)C(F)(F)F)C(F)(F)F, for which the activity coefficient amounted to 5.23 ± 0.24 (322.85 K), 4.93 ± 0.23 (332.65 K) and 4.6 ± 0.21 (343.15 K).

`CCC[N+](=O)[O-]` [1-nitropropane] + CCCCCCCC[N+](C)(C)C.O=S(=O)([N-]S(=O)(=O)C(F)(F)F)C(F)(F)F: the activity coefficient was 0.62 ± 0.03 (322.85 K), 0.61 ± 0.03 (332.65 K) and 0.6 ± 0.03 (343.15 K).

On to `CC(C)OC(C)C` [diisopropyl ether] + CCCCCCCC[N+](C)(C)C.O=S(=O)([N-]S(=O)(=O)C(F)(F)F)C(F)(F)F, for which the activity coefficient (322.85 K) worked out at 3.22 ± 0.15, the activity coefficient (332.65 K) was determined as 3.15 ± 0.14 and the activity coefficient (343.15 K) was found to be 3.08 ± 0.14.

On to `C1CCCCC1` [cyclohexane] + CCCC[N+](C)(CCCC)CCCC.O=S(=O)([N-]S(=O)(=O)C(F)(F)F)C(F)(F)F, for which the activity coefficient is, setting by setting: (322.85 K) 4.74 ± 0.22; (332.65 K) 4.71 ± 0.21; (343.15 K) 4.44 ± 0.2.

On to `CCCCCCCCCCCC` [dodecane] + CCCCCCCC[N+](CCCCCCCC)(CCCCCCCC)CCCCCCCC.O=S(=O)([N-]S(=O)(=O)C(F)(F)F)C(F)(F)F, for which the activity coefficient (343.15 K) was found to be 2.72 ± 0.12.

For `C#CCCCCC` [1-heptyne] + CCCCCCCC[N+](CCCCCCCC)(CCCCCCCC)CCCCCCCC.O=S(=O)([N-]S(=O)(=O)C(F)(F)F)C(F)(F)F, the activity coefficient came to 0.84 ± 0.03 (322.85 K), 0.86 ± 0.03 (332.65 K) and 0.87 ± 0.03 (343.15 K).

Take `CCCCCCCC` [octane] + CCCCCCCC[N+](CCCCCCCC)(CCCCCCCC)CCCCCCCC.O=S(=O)([N-]S(=O)(=O)C(F)(F)F)C(F)(F)F: the activity coefficient amounted to 1.73 ± 0.07 (322.85 K), 1.71 ± 0.07 (332.65 K) and 1.69 ± 0.07 (343.15 K).

As to `CCCCO` [butan-1-ol] + CCCC[N+](C)(CCCC)CCCC.O=S(=O)([N-]S(=O)(=O)C(F)(F)F)C(F)(F)F, the activity coefficient was determined as 2.1 ± 0.1 (322.85 K), 1.89 ± 0.08 (332.65 K) and 1.73 ± 0.07 (343.15 K).

The values above are taken from the NIST ThermoML archive (doi:10.1021/je200637v).
